± gives the expanded uncertainty stated by the source.

The values that follow come from the NIST ThermoML archive (doi:10.1016/j.fluid.2017.02.010).

The conditions of the data set: 293.15 K; 101.33 kPa; Liquid; Other PVT measurement.
One may read the mass density as the mass of a sample divided by its volume. As for `C1CCC(C2CCCCC2)CC1` [1,1'-bicyclohexyl], the mass density was 890 ± 10 kg/m3.
Regarding `CCCCCCCCCCCC` [dodecane], the mass density was determined as 753 ± 10 kg/m3.
In the case of `c1ccc(C2CCCCC2)cc1` [cyclohexylbenzene], the mass density came to 940 ± 10 kg/m3.
In the case of `CCCCCCCCCCCCCCCC` [hexadecane], the mass density is reported as 773 ± 10 kg/m3.
For the molecule `c1ccccc1` [benzene], the mass density was 877 ± 10 kg/m3.
The figure for `CCCCCCCCCCCCCC` [tetradecane] is 767 ± 10 kg/m3.
`CCCC1CCCCC1` [1-cyclohexylpropane]: the mass density is listed as 790 ± 10 kg/m3.
On to `CCCCCCCCC` [nonane], for which the mass density is listed as 718 ± 10 kg/m3.
With `C1CCCCC1` [cyclohexane], the mass density came out at 778 ± 10 kg/m3.
In the case of `CCCCCC` [hexane], the mass density was determined as 659 ± 10 kg/m3.
Regarding `CCCCCCC1CCCCC1` [hexylcyclohexane], the mass density was 810 ± 10 kg/m3.
